details: pH 7.4

logD | Structure (SMILES)
3.5 | C[C@H]1CN(C(=O)OC(C)(C)C)CCN1c1ncc(OCc2ccc(S(C)(=O)=O)cc2)cn1
3.2 | N#CC1(NC(=O)[C@@H]2CCCC[C@H]2C(=O)N2CCc3[nH]c4cccc(F)c4c3C2)CC1
2.7 | C[C@@H]1COCCN1c1cc(C2(S(C)(=O)=O)CC2)nc(-c2cccc3[nH]ccc23)n1
4.01 | N#CC1(NC(=O)[C@@H]2CCCC[C@H]2C(=O)N2CCc3[nH]c4c(OC(F)(F)F)cccc4c3C2)CC1
2.35 | C[C@@H]1CN(c2ccccc2)CCN1C(=O)[C@@H]1CCCC[C@H]1C(=O)NC1(C#N)CC1
1.9 | CC(C)(C)c1cc2nc3c(c(=O)n2[nH]1)CN(Cc1ccccc1)C3=O
3 | N#CC1(NC(=O)[C@@H]2CCCC[C@H]2C(=O)N2CCc3[nH]c4ccc(F)cc4c3C2)CC1
2.38 | C[C@H]1COCCN1c1cc(CS(C)(=O)=O)nc(-c2ccc3[nH]ccc3c2)n1
2.8 | CC(C)(C)OC(=O)N1CCC(c2ncc(OCc3ccc(S(C)(=O)=O)cc3)cn2)CC1
2.76 | CC(=O)NC1CN(c2ccc(Nc3ncc(F)c(-c4cnc(C)n4C(C)C)n3)cc2)C1
2.8 | Cc1nn(C)c2ccc(N3CCN(C(=O)[C@@H]4CCCC[C@H]4C(=O)NC4(C#N)CC4)[C@H](C)C3)cc12
2.8 | Fc1ccc(CN2CCN(C3=Nn4c(nnc4C(F)(F)F)CC3)CC2)cc1
2.55 | COc1c/c(=C2\C=c3ccccc3=N2)[nH]/c1=C\c1[nH]c(C)cc1C
2.88 | Cc1ncc(-c2ccnc(Nc3ccc(N4CCOCC4)cc3)n2)n1C(C)C
2.06 | CS(=O)(=O)Cc1cc(N2CCOCC2)nc(-c2ccc3[nH]ccc3c2)n1
2.8 | CC(C)(C)OC(=O)N1CCN(c2ccc(OCc3ccc(S(C)(=O)=O)cc3)nn2)CC1
2.4 | COc1ccc2[nH]c3c(c2c1)CN(C(=O)[C@@H]1CCCC[C@H]1C(=O)NC1(C#N)CC1)CC3
2.18 | COc1ccc(N(C(=O)c2occc2Cl)C(C(=O)NC[C@@H](C)O)c2ccccc2F)c(OC)c1 (some centres not stated)
3.2 | CC(C)(C)OC(=O)N1CCN(c2ccc(OCc3ccc(S(C)(=O)=O)cc3)cn2)CC1
0.96 | O=c1cc(O)c2c(=O)n(-c3ccccc3)c3ccccc3c2o1
1.2 | Nc1ccccc1NC(=O)c1ccc(N2CCOCC2)cc1
2.87 | Cc1sc(N2CCN(C(=O)[C@@H]3CCCC[C@H]3C(=O)NC3(C#N)CC3)CC2)nc1C(F)(F)F
0.7 | COC1/C=C\OC2(C)Oc3c(C)c(O)c4c(c3C2=O)C(=O)C=C(NC(=O)/C(C)=C\C=C/C(C)C(O)C(C)C(O)C(C)C(OC(C)=O)C1C)C4=O (configuration not stated)
2.2 | CC(=O)N1CCN(CCOc2ccc(C3(O)CCN(c4ccc5nnc(C(F)(F)F)n5n4)CC3)cc2)CC1
3.8 | COc1cnccc1COc1cnc(N2CCN(C(=O)OC(C)(C)C)CC2)nc1
1.32 | Cc1ncc(-c2ccnc(Nc3ccc(S(=O)(=O)CCCN(C)C)cc3)n2)n1C(C)C
1.3 | N#CC1(NC(=O)[C@@H]2CCCC[C@H]2C(=O)N2CCN(c3nccs3)CC2)CC1

Further lines, the compound ahead of its results:

Structure (SMILES) | logD
COc1cc(N2CCN(C(=O)[C@@H]3CCCC[C@H]3C(=O)NC3(C#N)CC3)[C@H](C)C2)ccc1C1CC1 | 3.49
N#CC1(NC(=O)[C@@H]2CCCC[C@H]2C(=O)N2CCc3[nH]c4cc(F)ccc4c3C2)CC1 | 2.99
CC(C)(C)OC(=O)N1CCN(c2ccc(OCc3ccc(S(C)(=O)=O)cc3)cc2)CC1 | 3.9
Cc1noc2cc(N3CCN(C(=O)[C@@H]4CCCC[C@H]4C(=O)NC4(C#N)CC4)[C@H](C)C3)ccc12 | 2.67
CC(C)(C)OC(=O)N1CCN(c2ncc(OCc3ccncc3)cn2)CC1 | 3.4
Cc1ncc(-c2ccnc(Nc3ccc(N4CCN(S(=O)(=O)CCN(C)C)CC4)cc3)n2)n1C(C)C | 2.52
C[C@@H]1CN(C(=O)OC(C)(C)C)CCN1c1ncc(OCc2ccc(S(C)(=O)=O)cc2C#N)cn1 | 3.3
N#Cc1cccnc1-c1ccc(C(=O)Nc2ccccc2N)cc1 | 1.58
N#CC1(NC(=O)[C@@H]2CCCC[C@H]2C(=O)N2CCc3[nH]c4ccccc4c3C2)CC1 | 2.66
CCOc1cccc2c3c([nH]c12)CCN(C(=O)[C@@H]1CCCC[C@H]1C(=O)NC1(C#N)CC1)C3 | 3.1
COc1ccc(N2CCN(C(=O)[C@@H]3CCCC[C@H]3C(=O)NC3(C#N)CC3)[C@H](C)C2)nc1OC | 2.3
O=c1cc(-c2ccccc2)nc2cc[nH]n12 | 1.3
C[C@@H]1CN(c2ncc(F)cn2)CCN1c1ncc(OCc2ccncc2C#N)cn1 | 3.4
CCCN(c1cccnc1)P(=O)(c1ccccc1)c1ccccc1 | 2.6
N#CC1(NC(=O)[C@@H]2CCCC[C@H]2C(=O)N2CCN(c3nc(-c4ccccc4)cs3)CC2)CC1 | 3.5
N#CC1(NC(=O)[C@@H]2CCCC[C@H]2C(=O)N2CCc3[nH]c4ccc(C(F)(F)F)cc4c3C2)CC1 | 4.2
COc1cc(N2CC3COCC(C2)N3)ccc1Nc1ncc(Cl)c(-c2cnc3ccccn23)n1 | 3
COc1ccc(N2CCN(C(=O)[C@@H]3CCCC[C@H]3C(=O)NCC#N)CC2)cc1 | 1.6
C[C@H]1O[C@@H](n2cnc3c(N)nc(OC4CCCC4)nc32)[C@H](O)[C@H]1Cl | 3.18
N#Cc1cnc(N2CCN(C(=O)[C@@H]3CCCC[C@H]3C(=O)NC3(C#N)CC3)CC2)s1 | 1.2

Structure (SMILES) | logD
N#CC1(NC(=O)[C@@H]2CCCC[C@H]2C(=O)N2CCc3oc4ccccc4c3C2)CC1 | 3.01
CCNC(=O)c1cc2c(-n3ccc(C(F)(F)F)n3)c(-c3cncc(C#N)c3)cnc2[nH]1 | 2.62
COc1ccc(N2CCN(C(=O)[C@@H]3CCCC[C@H]3C(=O)NC3(C#N)CC3)CC2)cc1 | 1.74
CS(=O)(=O)Cc1cc(N2CCOCC2)nc(-c2ccccc2)n1 | 1.94
CS(=O)(=O)C1(c2cc(N3CCOCC3)nc(-c3cccc4[nH]ccc34)n2)CC1 | 2.2
CC(C)Oc1cc(OCCN2CCOCC2)cc2ncnc(Nc3c(Cl)ccc4c3OCO4)c12 | 3.68
COc1ccc(N(C(=O)c2occc2CO)C(C(=O)NC[C@@H](C)O)c2ccccc2F)c(OC)c1 (some centres not stated) | 1.37
Nc1ccccc1NC(=O)c1ccc(-c2ncc(CN3CCC3)cc2F)cc1 | 1.69
CC(C)c1ccc2[nH]c3c(c2c1)CN(C(=O)[C@@H]1CCCC[C@H]1C(=O)NC1(C#N)CC1)CC3 | 4.1
Cc1ccc(-c2cccc(-c3nn[nH]n3)c2)cc1 | 1.3
CC(=O)c1ncccc1NC(=O)C1CCC(N2C(=O)[C@@H]3[C@@H]4CC[C@@H](C4)[C@@H]3C2=O)CC1 (some centres not stated) | 3.01
CCn1c(=O)c2c(O)cc(=O)oc2c2ccccc21 | 1.13
N#CC1(NC(=O)[C@@H]2CCCC[C@H]2C(=O)N2CCN(c3nc(C(F)(F)F)cs3)CC2)CC1 | 2.4
CC(C)c1nc(N2CCN(c3ncc(OCc4ccncc4C#N)cn3)[C@H](C)C2)no1 | 3.3
C[C@@H]1CN(C(=O)OC(C)(C)C)CCN1c1ncc(OCc2ccc(S(C)(=O)=O)cc2F)cn1 | 3.7
COc1ccc(N(C(=O)c2ccccc2)C(C(=O)NC[C@@H](C)O)c2ccccc2F)c(OC)c1 (some centres not stated) | 2.55
COc1ccc(N(C(=O)c2ccccc2)C(C(=O)NC2CCCC2)c2ccccc2F)c(OC)c1 (configuration not stated) | 3.86
CCCSc1ncccc1C(=O)NC1CCCCC1 | 3.24
Cc1nc2nc(NC(=O)c3ccc(F)cc3)[nH]n2c(=O)c1Cc1ccccc1 | 2.2
COCc1ccoc1C(=O)N(c1ccc(OC)cc1OC)C(C(=O)NC[C@@H](C)O)c1ccccc1F (some centres not stated) | 1.98
